The test system of assay [1] is PBMC from allergic donors. The experiment in a line: IL-5 ELISPOT with extract-stimulated short-term lines. It is filed as cell-based, human. The settings on record: positive donor/peptide response. On the procedure: (§1) Spots were counted by computer-assisted image analysis (Zeiss, KS-ELISPOT reader, Munich, Germany).
(§2) Each assay was performed in triplicate. The level of statistical significance was determined with a Student's t-test using the mean of triplicate values of the response against relevant pools or individual peptides versus the response against the DMSO control.

Assay [2] concerns PBMC from allergic donors. The experiment in a line: Dual ELISPOT, total IL-5 and IFN-γ response (SFC). In kind it is cell-based, human. The conditions noted are these: sum of IFNg and IL-5. The procedure:
as §1, §2

“And” between values parts separate entries of the source, which are not always exact repeats. Equal entries are not always repeated.

As to 3324.0988 (RIYVDIVLNHMTGAQ), the “Response (SFC/10^6) IL-5” value in assay [1] (one donor per table line) was determined as 117 SFC/10^6. Besides, the “Response (SFC/10^6) Total” value in assay [2] (one donor per table line) is 117 SFC/10^6.

3324.0989 (SIYSRLHNLNKEFFP): the “Response (SFC/10^6) IL-5” value in assay [1] (one donor per table line) amounted to 117 SFC/10^6. For the same substance, the “Response (SFC/10^6) Total” value in assay [2] (one donor per table line) is recorded as 117 SFC/10^6.

As for 3324.0991 (PRVMSSYFWNQIIKD), the “Response (SFC/10^6) IL-5” value in assay [1] (one donor per table line) turned out to be 152 SFC/10^6. Moreover, the “Response (SFC/10^6) Total” value in assay [2] (one donor per table line) came to 152 SFC/10^6.

3324.0992 (DALVMIDSHDLRVGH): the “Response (SFC/10^6) IL-5” value in assay [1] (one donor per table line) amounted to 290 SFC/10^6. In assay [2] (one donor per table line), the “Response (SFC/10^6) Total” value is listed as 290 SFC/10^6.

On to 3324.0993 (VKFRMIAGQEPVHNW), for which, in assay [1] (one donor per table line), the “Response (SFC/10^6) IL-5” value came to 92 SFC/10^6. In addition, in assay [2] (one donor per table line), the “Response (SFC/10^6) Total” value is listed as 92 SFC/10^6.

Consider 3324.0997 (GELALFYLQEQINHF), for which the “Response (SFC/10^6) IL-5” value in assay [1] (one donor per table line) was found to be 1113 SFC/10^6. The “Response (SFC/10^6) Total” value in assay [2] (one donor per table line) stood at 1113 SFC/10^6.

Take 3324.0998 (FDFLLMERIHEQIKK): in assay [1] (one donor per table line), the “Response (SFC/10^6) IL-5” value came out at 143 SFC/10^6. Further, the “Response (SFC/10^6) Total” value in assay [2] (one donor per table line) was 143 SFC/10^6.

In the case of 3324.1001 (RKDLDIFEQYNLEMA), the “Response (SFC/10^6) IL-5” value in assay [1] (one donor per table line) is given as 117 SFC/10^6. The “Response (SFC/10^6) Total” value in assay [2] (one donor per table line) was 117 SFC/10^6.

As for 3324.1036 (TLPTILQIASVTKMS), in assay [1] (one donor per table line), the “Response (SFC/10^6) IL-5” value is given as 120 SFC/10^6. For the same substance, in assay [2] (one donor per table line), the “Response (SFC/10^6) Total” value is 120 SFC/10^6.

As for 3324.1040 (TIYSNVANLRNWIIS), the “Response (SFC/10^6) IL-5” value in assay [1] (one donor per table line) is 297 SFC/10^6. Further, in assay [2] (one donor per table line), the “Response (SFC/10^6) Total” value was found to be 297 SFC/10^6.

As to 3324.1043 (SNVANLRNWIISNTV), in assay [1] (one donor per table line), the “Response (SFC/10^6) IL-5” value is on record as 177 SFC/10^6. Also, the “Response (SFC/10^6) Total” value in assay [2] (one donor per table line) is 177 SFC/10^6.

Take 3324.1102 (DTCRARFITKLSEFI): in assay [1] (one donor per table line), the “Response (SFC/10^6) IL-5” value is 67 SFC/10^6. In assay [2] (one donor per table line), the “Response (SFC/10^6) Total” value is given as 67 SFC/10^6.

For 3324.1105 (LSEFITGASVRLQCR), in assay [1] (one donor per table line), the “Response (SFC/10^6) IL-5” value is 73 SFC/10^6. Moreover, the “Response (SFC/10^6) Total” value in assay [2] (one donor per table line) came to 73 SFC/10^6.

Regarding 3324.1129 (ELADILRSLGSDVGE), the “Response (SFC/10^6) IL-5” value in assay [1] (one donor per table line) turned out to be 380 SFC/10^6. Further, in assay [2] (one donor per table line), the “Response (SFC/10^6) Total” value is reported as 380 SFC/10^6.

For the substance 3324.1130 (LISVEEFQTMMTSEM), in assay [1] (one donor per table line), the “Response (SFC/10^6) IL-5” value was 153 SFC/10^6. In addition, in assay [2] (one donor per table line), the “Response (SFC/10^6) Total” value worked out at 153 SFC/10^6.

Consider 3324.1131 (GYVSLQEFVDLNNKG), for which, in assay [1] (one donor per table line), the “Response (SFC/10^6) IL-5” value is 80 SFC/10^6 and 420 SFC/10^6. In addition, in assay [2] (one donor per table line), the “Response (SFC/10^6) Total” value is 80 SFC/10^6 and 420 SFC/10^6.

On to 3324.1134 (VALFAVFLGSAHGIA), for which the “Response (SFC/10^6) IL-5” value in assay [1] (one donor per table line) was determined as 208 SFC/10^6. The “Response (SFC/10^6) Total” value in assay [2] (one donor per table line) is 208 SFC/10^6.

Regarding 3324.1137 (KQQGIRYANPIAFFR), in assay [1] (one donor per table line), the “Response (SFC/10^6) IL-5” value was 123 SFC/10^6. For the same substance, the “Response (SFC/10^6) Total” value in assay [2] (one donor per table line) was found to be 123 SFC/10^6.

Turning to 3324.1170 (FLAVALVAGPAASYA), in assay [1] (each table line is one donor), the “Response (SFC/10^6) IL-5” value came to 63 SFC/10^6. Further, the “Response (SFC/10^6) Total” value in assay [2] (each table line is one donor) was 63 SFC/10^6.

On to 3324.1178 (EVKYTVSETALKKAV), for which the “Response (SFC/10^6) IL-5” value in assay [1] (each table line is one donor) is reported as 333 SFC/10^6. The “Response (SFC/10^6) Total” value in assay [2] (each table line is one donor) turned out to be 333 SFC/10^6.

As for 3324.1179 (FTVFENTFNNAIKVS), the “Response (SFC/10^6) IL-5” value in assay [1] (each table line is one donor) is 87 SFC/10^6. For the same substance, the “Response (SFC/10^6) Total” value in assay [2] (each table line is one donor) is 87 SFC/10^6.

Regarding 3324.1181 (VDAAYRTAATAANAA), the “Response (SFC/10^6) IL-5” value in assay [1] (each table line is one donor) stood at 383 SFC/10^6. Besides, the “Response (SFC/10^6) Total” value in assay [2] (each table line is one donor) is 383 SFC/10^6.

For 3324.1183 (LKKAVTAMSEAEKEA), in assay [1] (each table line is one donor), the “Response (SFC/10^6) IL-5” value came to 128 SFC/10^6. In assay [2] (each table line is one donor), the “Response (SFC/10^6) Total” value worked out at 128 SFC/10^6.

Consider 3324.1186 (TNKAFVEGLASGYAD), for which, in assay [1] (each table line is one donor), the “Response (SFC/10^6) IL-5” value is given as 287 SFC/10^6. Besides, the “Response (SFC/10^6) Total” value in assay [2] (each table line is one donor) was 287 SFC/10^6.

As to 3324.1191 (DKFTVFESAFNKALN), the “Response (SFC/10^6) IL-5” value in assay [1] (each table line is one donor) worked out at 97 SFC/10^6. The “Response (SFC/10^6) Total” value in assay [2] (each table line is one donor) was determined as 97 SFC/10^6.

As to 3324.1196 (AALTKAITAMTQAQK), the “Response (SFC/10^6) IL-5” value in assay [1] (each table line is one donor) amounted to 998 SFC/10^6. Further, the “Response (SFC/10^6) Total” value in assay [2] (each table line is one donor) amounted to 998 SFC/10^6.

As for 3324.1547 (KYMVIQGEPGAVIRG), in assay [1] (one donor per table line), the “Response (SFC/10^6) IL-5” value worked out at 63 SFC/10^6. In assay [2] (one donor per table line), the “Response (SFC/10^6) Total” value was 63 SFC/10^6.

Take 3324.1549 (SSSFPQFKSEEITNI): the “Response (SFC/10^6) IL-5” value in assay [1] (one donor per table line) amounted to 77 SFC/10^6. Further, the “Response (SFC/10^6) Total” value in assay [2] (one donor per table line) turned out to be 77 SFC/10^6.

In the case of 3324.1550 (GVTVKKTNQALIFGI), the “Response (SFC/10^6) IL-5” value in assay [1] (one donor per table line) is reported as 93 SFC/10^6. Also, in assay [2] (one donor per table line), the “Response (SFC/10^6) Total” value was 93 SFC/10^6.

As for 3324.1552 (HSRNLINELSERMAG), in assay [1] (each table line is one donor), the “Response (SFC/10^6) IL-5” value is 118 SFC/10^6 and 190 SFC/10^6 and 57 SFC/10^6. In assay [2] (each table line is one donor), the “Response (SFC/10^6) Total” value is 118 SFC/10^6 and 190 SFC/10^6 and 57 SFC/10^6.

Regarding 3324.1558 (NYLALLVKYVTGDGD), in assay [1] (each table line is one donor), the “Response (SFC/10^6) IL-5” value came to 80 SFC/10^6. Moreover, the “Response (SFC/10^6) Total” value in assay [2] (each table line is one donor) stood at 80 SFC/10^6.

In the case of 3324.1562 (DKFTVFEAAFNNAIK), in assay [1] (each table line is one donor), the “Response (SFC/10^6) IL-5” value is 183 SFC/10^6. Also, in assay [2] (each table line is one donor), the “Response (SFC/10^6) Total” value was determined as 183 SFC/10^6.

These data come from patent US10918713B2, “Epitopes from allergen proteins and methods and uses for immune response modulation” (LA JOLLA INSTITUTE FOR ALLERGY AND IMMUNOLOGY, priority 2012, dated 2021).
